For experiment [1], the target named is T1, α1G T-type calcium channel (Homo sapiens, UniProt O43497).
T1 construct: host or cells: HEK293
In words: Assay for % inhibiting activity against T-type calcium channel using FDSS6000 (fluo-3 calcium imaging, KCl activation). The class given is cell-based. The conditions noted are these: 10 μM; HEK293 cells stably expressing α1G T-type calcium channel and Kir2.1; compounds of the examples. The procedure, abridged:
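HEK293 cells stably expressing α1G and Kir2.1 loaded with 5 μM fluo-3/AM, then in HEPES buffer (pH 7.4) with 10 mM CaCl2. Compound applied 75 s before 75 mM KCl; intracellular Ca2+ read as […] area, % inhibition relative to untreated control.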

Experiment [2] addresses T1, α1G T-type calcium channel. In words: Electrophysiological whole cell patch clamp measurement of T-type calcium channel current in HEK293 cells. Particulars: HEK293 cells expressing α1G; for HEK293cell (% Inhibition) 10 μM: inhibition of peak current; for IC50: read-out: IC50 (a1G). It counts as cell-based. As for the experimental part: In the present invention, in order to examine an efficient inhibitor against the T-type calcium channel, a primary assay for T-type calcium channel inhibiting activity was conducted by a high-efficient assay using FDSS6000, wherein mammal HEK293 cell lines (originated from human kidney carcinoma cells) that specifically express α1G of the T-type calcium channel was used for primary assay. Through the primary assay, compounds that show meaningful inhibition effects were selected. The selected compounds were used in a second assay for T-type calcium channel inhibiting activity using an electrophysiological whole cell patch clamp method, wherein mammal HEK293 cell lines (originated from human kidney carcinoma cells) that specifically express α1G of the T-type calcium channel was used for the second assay. Mibefradil, which had been developed as a T-type calcium channel inhibitor, was used as a reference.
10% Fetal bovine serum (FBS) and 1% penicillin/streptomycin (v/v) were added to Dulbecco's modified Eagle's medium (DMEM), to be used as a media solution. The cells were cultured in an incubator under a wet condition of 95% air/5% CO2 and a temperature of 36.5° C. The media solution was refreshed every 3 or 4 days, and the cells were sub-cultured every week. Only the cells that expressed α1G T-type calcium channel were cultured using a G-418 (0.5 mg/ml) solution. The recording of the cells used in the T-type calcium channel activity analysis was conducted at 2-7 days after the cells were culturing on a cover slip coated with poly-L-lysine (0.5 mg/ml) when conducting every sub-culture. For analysis at a single cell level, the T-type calcium channel current was measured by an electrophysiological whole cell patch clamp method using EPC-9 amplifier (HEKA, German).
As solutions for analyzing T-type calcium channel activity, a solution including NaCl 140 mM, CaCl2 2 mM, and HEPES10 mM (pH 7.4, Sigma; 4-(2-hydroxyethyl)piperazine-1-ethanesulfonic acid) was used as an extracellular solution, and a solution including KCl 130 mM, HEPES 10 mM (Sigma), EGTA 11 mM (ethylene glycol-bis(2-aminoethylether)-N,N,N′,N′-tetraacetic acid, Sigma), and MgATP 5 mM (pH 7.4, Sigma) was used as an intracellular solution. The protocol for T-type calcium channel activity that is activated at low voltage is as follows. A micro-glass electrode with resistance of 3-4 MΩ wherein the above-prepared intracellular solution was filled was pricked into a single cell, to make a whole-cell recording mode. Thereafter, the cell membrane potential was fixed to −100 mV, and then the inward current due to the T-type calcium channel activity when hypopolarizing to −30 mV (50 ms duration) was measured every 10 seconds.
Each compound to be tested was dissolved in 100% dimethylsulfoxide (DMSO) to make a 10 mM stock solution. The effect of the compound on the T-type calcium channel current compound was initially examined in the stock solution with the 1000-times diluted concentration of 10 μM (containing 0.1% DMSO) and then examined in the solution with the concentration for IC50 measurement (mostly 0.1 to 100 μM), to obtain an IC50 value. More specifically, the cells were treated in each compound together with the extracellular solution for 30 to 60 seconds, and the inhibition level of peak current induced by the compound was calculated as a percentage, to obtain the % inhibition value as shown in Table 4.
(In general: In patch-clamp work, channel activity is measured electrically.)

The results in this text go back to patent publication US7998989B2, “2-Imino-1,3-thiazoline-based compounds and T-type calcium channel inhibitors containing the same” (Korea Institute of Science and Technology, priority 2007, dated 2011).

T1 sequence (O43497 whole entry): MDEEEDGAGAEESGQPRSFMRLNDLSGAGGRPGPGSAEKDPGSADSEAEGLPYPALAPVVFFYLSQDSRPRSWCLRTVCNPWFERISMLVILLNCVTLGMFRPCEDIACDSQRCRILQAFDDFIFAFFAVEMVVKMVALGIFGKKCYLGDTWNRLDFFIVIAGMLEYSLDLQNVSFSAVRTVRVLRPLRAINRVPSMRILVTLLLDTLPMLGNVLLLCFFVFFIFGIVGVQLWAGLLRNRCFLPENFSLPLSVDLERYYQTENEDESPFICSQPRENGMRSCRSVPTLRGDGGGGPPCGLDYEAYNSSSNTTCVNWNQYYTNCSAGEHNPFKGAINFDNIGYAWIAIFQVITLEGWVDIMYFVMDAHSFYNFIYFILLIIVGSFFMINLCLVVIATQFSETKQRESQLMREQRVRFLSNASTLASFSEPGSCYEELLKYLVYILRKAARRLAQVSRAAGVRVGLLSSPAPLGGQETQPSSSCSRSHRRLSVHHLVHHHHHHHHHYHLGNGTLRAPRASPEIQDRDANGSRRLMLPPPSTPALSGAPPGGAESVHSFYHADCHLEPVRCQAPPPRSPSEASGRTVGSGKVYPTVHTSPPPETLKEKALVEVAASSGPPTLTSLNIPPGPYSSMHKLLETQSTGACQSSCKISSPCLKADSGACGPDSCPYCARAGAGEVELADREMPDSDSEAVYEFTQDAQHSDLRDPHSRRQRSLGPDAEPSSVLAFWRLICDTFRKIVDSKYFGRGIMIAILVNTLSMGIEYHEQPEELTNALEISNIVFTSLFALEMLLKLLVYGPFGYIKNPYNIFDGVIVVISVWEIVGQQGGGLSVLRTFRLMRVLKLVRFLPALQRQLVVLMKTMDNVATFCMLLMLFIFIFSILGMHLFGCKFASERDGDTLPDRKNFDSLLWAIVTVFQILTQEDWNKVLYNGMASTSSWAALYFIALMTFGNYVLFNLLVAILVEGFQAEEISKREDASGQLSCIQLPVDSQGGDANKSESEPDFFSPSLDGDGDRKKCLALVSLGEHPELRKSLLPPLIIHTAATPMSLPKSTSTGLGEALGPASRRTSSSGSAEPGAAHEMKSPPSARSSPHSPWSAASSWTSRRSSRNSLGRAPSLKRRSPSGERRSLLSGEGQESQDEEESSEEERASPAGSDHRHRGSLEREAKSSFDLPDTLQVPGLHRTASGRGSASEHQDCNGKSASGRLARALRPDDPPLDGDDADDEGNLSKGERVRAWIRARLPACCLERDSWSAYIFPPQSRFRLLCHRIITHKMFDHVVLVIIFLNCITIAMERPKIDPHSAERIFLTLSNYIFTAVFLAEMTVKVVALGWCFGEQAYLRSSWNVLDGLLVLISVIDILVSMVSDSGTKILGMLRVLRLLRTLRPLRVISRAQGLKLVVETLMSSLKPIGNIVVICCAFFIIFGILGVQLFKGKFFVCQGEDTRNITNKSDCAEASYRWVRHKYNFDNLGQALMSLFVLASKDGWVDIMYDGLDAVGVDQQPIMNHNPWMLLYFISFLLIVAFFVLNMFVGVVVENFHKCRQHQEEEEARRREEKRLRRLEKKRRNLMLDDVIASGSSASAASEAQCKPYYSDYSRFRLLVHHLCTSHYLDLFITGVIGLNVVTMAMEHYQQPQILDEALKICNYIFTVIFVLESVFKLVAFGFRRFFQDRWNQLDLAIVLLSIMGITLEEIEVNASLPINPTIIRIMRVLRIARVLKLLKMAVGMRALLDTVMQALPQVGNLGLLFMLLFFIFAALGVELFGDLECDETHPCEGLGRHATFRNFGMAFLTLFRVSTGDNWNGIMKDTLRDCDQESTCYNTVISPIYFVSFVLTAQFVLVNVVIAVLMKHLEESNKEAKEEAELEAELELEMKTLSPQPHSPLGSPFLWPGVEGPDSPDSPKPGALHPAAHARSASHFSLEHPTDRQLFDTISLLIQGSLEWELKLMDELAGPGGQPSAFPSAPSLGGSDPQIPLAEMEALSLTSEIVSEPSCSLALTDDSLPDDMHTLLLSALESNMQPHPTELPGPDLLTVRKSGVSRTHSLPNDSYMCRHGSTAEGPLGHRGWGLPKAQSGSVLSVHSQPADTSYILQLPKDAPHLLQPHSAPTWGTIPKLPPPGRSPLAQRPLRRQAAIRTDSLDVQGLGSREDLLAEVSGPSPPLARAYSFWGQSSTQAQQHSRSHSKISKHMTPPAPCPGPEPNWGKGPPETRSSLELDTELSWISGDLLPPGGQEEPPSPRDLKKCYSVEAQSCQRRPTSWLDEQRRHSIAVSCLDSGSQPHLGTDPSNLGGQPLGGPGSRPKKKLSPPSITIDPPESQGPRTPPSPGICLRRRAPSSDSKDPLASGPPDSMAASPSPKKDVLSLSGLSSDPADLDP

On to “(2-cycloheptylimino-3-methyl-1,3-thiazolidine-4-yl)-N-(4-chloro-2-fluorophenyl)-acetamide hydrochloride [KHG24130]”, for which, in experiment [1], the “FDSS (% inhibition)/10uM” value turned out to be 70.4%. Also, in experiment [2], the “HEK293cell (% Inhibition) 10 μM” value is recorded as 90.0 ± 0.9% and the IC50 was determined as 810 ± 80 nM.
In the case of “[2-(1-adamantylimino)-3-n-propyl-1,3-thiazolidine-4-yl]-N-(4-chloro-2-fluorophenyl)-acetamide hydrochloride [KHG24816]”, the “FDSS (% inhibition)/10uM” value in experiment [1] is listed as 80.83%. Also, in experiment [2], the “HEK293cell (% Inhibition) 10 μM” value was found to be 95.6 ± 0.8% and the IC50 is 510 ± 10 nM.
On the same counts, the results for “(2-cycloheptylimino-3-methyl-1,3-thiazolidine-4-yl)-N-(2-chloro-4-fluorophenyl)-acetamide hydrochloride [KHG24120]” are 60.08%, 82.7 ± 0.9% and 2750 ± 250 nM.
In the case of “(2-cycloheptylimino-3-methyl-1,3-thiazolidine-4-yl)-N-(4-fluorobenzyl)-acetamide hydrochloride [KHG24159]”, in experiment [1], the “FDSS (% inhibition)/10uM” value was determined as 48.52%. Further, in experiment [2], the “HEK293cell (% Inhibition) 10 μM” value came out at 76.8 ± 1.4% and the concentration for half-maximal inhibition (IC50) is 3570 ± 290 nM.
For “(2-cycloheptylimino-3-methyl-1,3-thiazolidine-4-yl)-N-(4-methyl-2-chlorophenyl)-acetamide hydrochloride [KHG24124]”, the “FDSS (% inhibition)/10uM” value in experiment [1] was 59.49%. Also, in experiment [2], the “HEK293cell (% Inhibition) 10 μM” value amounted to 87.1 ± 1.2% and the IC50 was found to be 1770 ± 100 nM.
Turning to “(2-cyclohexylimino-3-methyl-1,3-thiazolidine-4-yl)-N-(2-fluoro-5-nitrophenyl)-acetamide hydrochloride [KHG23360]”, in experiment [1], the “FDSS (% inhibition)/10uM” value worked out at 66.64%. In addition, in experiment [2], the “HEK293cell (% Inhibition) 10 μM” value was 87.8 ± 2.2% and the IC50 was 780 ± 80 nM.
The like results for “(2-cycloheptylimino-3-methyl-1,3-thiazolidine-4-yl)-N-(4-chlorobenzyl)-acetamide hydrochloride [KHG24160]” were, in that order, 61.93%, 92.9 ± 0.7% and 1330 ± 30 nM.
Turning to “[2-(1-adamantyl)imino-3-methyl-1,3-thiazolidine-4-yl]-N-(4-trifluoromethylphenyl)-acetamide hydrochloride [KHG24240]”, the “FDSS (% inhibition)/10uM” value in experiment [1] was found to be 70.68%. Further, in experiment [2], the “HEK293cell (% Inhibition) 10 μM” value is 96.2 ± 1.1% and the IC50 was determined as 230 ± 20 nM.
On the same counts, the results for “[2-(1-adamantylimino)-3-n-propyl-1,3-thiazolidine-4-yl]-N-(4-ethylphenyl)-acetamide hydrochloride [KHG24814]” are 76.32%, 96.9 ± 1.8% and 300 ± 10 nM.
The like results for “(2-cycloheptylimino-3-methyl-1,3-thiazolidine-4-yl)-N-(4-n-butylphenyl)-acetamide hydrochloride [KHG24134]” were, in that order, 75.92%, 95.1 ± 2.0% and 340 ± 30 nM.
The like results for “(2-cyclohexylimino-3-methyl-1,3-thiazolidine-4-yl)-N-(4-fluorophenyl)-acetamide hydrochloride [KHG23210]” were, in that order, 46.69%, 59.6 ± 1.5% and 6500 ± 500 nM.
Consider “(2-cycloheptylimino-3-methyl-1,3-thiazolidine-4-yl)-N-(4-ethylphenyl)-acetamide hydrochloride [KHG24117]”, for which the “FDSS (% inhibition)/10uM” value in experiment [1] is reported as 67.09%. Further, in experiment [2], the “HEK293cell (% Inhibition) 10 μM” value worked out at 93.0 ± 2.5% and the IC50 was 570 ± 70 nM.
The like results for “(2-cycloheptylimino-3-methyl-1,3-thiazolidine-4-yl)-N-(4-chlorophenyl)-acetamide hydrochloride [KHG24131]” were, in that order, 72.86%, 86.8 ± 0.3% and 520 ± 20 nM.
The like results for “(2-cyclohexylimino-3-methyl-1,3-thiazolidine-4-yl)-N-(3,5-ditrifluoromethylphenyl)-acetamide hydrochloride [KHG24075]” were, in that order, 73.72%, 94.1 ± 1.5% and 320 ± 20 nM.
Take “[2-(1-adamantylimino)-3-cyclopropyl-1,3-thiazolidine-4-yl]-N-(4-trifluoromethylphenyl)-acetamide hydrochloride [KHG24790]”: in experiment [1], the “FDSS (% inhibition)/10uM” value stood at 73.05%. Further, in experiment [2], the “HEK293cell (% Inhibition) 10 μM” value is on record as 94.8 ± 0.9% and the IC50 was determined as 240 ± 10 nM.
On the same counts, the results for “(2-cyclohexylimino-3-methyl-1,3-thiazolidine-4-yl)-N-(4-chlorophenyl)-acetamide hydrochloride [KHG23362]” are 66.17%, 89.3 ± 0.9% and 530 ± 30 nM.
“[2-(1-adamantylimino)-3-ethyl-1,3-thiazolidine-4-yl]-N-(4-ethylphenyl)-acetamide hydrochloride [KHG24847]”: in experiment [1], the “FDSS (% inhibition)/10uM” value is recorded as 72.23%. Moreover, in experiment [2], the “HEK293cell (% Inhibition) 10 μM” value turned out to be 95.5 ± 2.7% and the IC50 turned out to be 350 ± 10 nM.
On the same counts, the results for “[2-(1-adamantyl)imino-3-methyl-1,3-thiazolidine-4-yl]-N-(4-bromophenyl)-acetamide hydrochloride [KHG24239]” are 69.55%, 96.5 ± 1.3% and 610 ± 70 nM.
Take “(2-cycloheptylimino-3-methyl-1,3-thiazolidine-4-yl)-N-phenyl-acetamide hydrochloride [KHG24132]”: the “FDSS (% inhibition)/10uM” value in experiment [1] is listed as 50.94%. Besides, in experiment [2], the “HEK293cell (% Inhibition) 10 μM” value is 76.8 ± 1.0% and the IC50 amounted to 5000 ± 1970 nM.
The like results for “[2-(1-adamantylimino)-3-n-propyl-1,3-thiazolidine-4-yl]-N-(4-fluorophenyl)-acetamide hydrochloride [KHG24811]” were, in that order, 71.82%, 94.8 ± 0.7% and 600 ± 40 nM.
On to “(2-cyclohexylimino-3-methyl-1,3-thiazolidine-4-yl)-N-(4-phenoxyphenyl)-acetamide hydrochloride [KHG23355]”, for which, in experiment [1], the “FDSS (% inhibition)/10uM” value is on record as 58.95%. In experiment [2], the “HEK293cell (% Inhibition) 10 μM” value is reported as 88.1 ± 2.0% and the IC50 came to 1510 ± 170 nM.
For “[2-(1-adamantylimino)-3-cyclopropyl-1,3-thiazolidine-4-yl]-N-(4-n-butylphenyl)-acetamide hydrochloride [KHG24789]”, the “FDSS (% inhibition)/10uM” value in experiment [1] is listed as 78.21%. For the same substance, in experiment [2], the “HEK293cell (% Inhibition) 10 μM” value was determined as 95.1 ± 0.7% and the IC50 was found to be 190 ± 20 nM.
On the same counts, the results for “[2-(1-adamantylimino)-3-cyclopropyl-1,3-thiazolidine-4-yl]-N-(4-isopropylphenyl)-acetamide hydrochloride [KHG24788]” are 72.88%, 95.3 ± 0.4% and 310 ± 20 nM.
On the same counts, the results for “[2-(1-adamantyl)imino-3-methyl-1,3-thiazolidine-4-yl]-N-(5-chloro-2-fluorophenyl)-acetamide hydrochloride [KHG24242]” are 53.38%, 85.2 ± 1.3% and 970 ± 140 nM.

The IC50 is the point on the concentration scale where inhibition reaches its midpoint.
